# Measurements from patent US6737383B1, “Herbicidal oxadiazolidines” (priority 1999, dated 2004).
# Key:
# pigweed = assay: Test B pre/postemergence pigweed; type: in vivo, Amaranthus retroflexus
# Outline: (§1)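 Herbicidal effect was estimated by eye on a ten-point control scale after plants spent twelve to sixteen days in a greenhouse following soil or foliar treatment. Foliar sprays targeted plants at one to four leaves; all doses were formulated in a non-phytotoxic solvent with surfactant.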
# rice = assay: Test B flood test rice; type: in vivo, Oryza sativa
# Outline: (§2)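 Read-out is a visual response score from 0 (no effect) to 10 (complete control), assigned by comparison with untreated controls. Treatment was applied at the 2-leaf stage, and plants stayed in the greenhouse for twelve to sixteen days before scoring.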
# bamyardgrass = assay: Test B flood test barnyardgrass; type: in vivo, Echinochloa crus-galli
# Outline: as §2
# corn = assay: Test B pre/postemergence corn; type: in vivo, Zea mays
# Outline: as §1
# smallflower flatsedge = assay: Test B flood test smallflower flatsedge; type: in vivo, Cyperus difformis
# Outline: as §2
# crabgrass = assay: Test B pre/postemergence crabgrass; type: in vivo, Digitaria sanguinalis
# Outline: as §1
# wheat = assay: Test B pre/postemergence wheat; type: in vivo, Triticum aestivum; settings: for Plant response rating, Wheat: Rate 250 g/ha
# Outline: as §1
# bedstraw = assay: Test B pre/postemergence bedstraw; type: in vivo, Galium aparine
# Outline: as §1
# morningglory = assay: Test B pre/postemergence morningglory; type: in vivo, Ipomoea hederacea
# Outline: as §1
# surinam grass = assay: Test B pre/postemergence surinam grass; type: in vivo, Brachiaria decumbens
# Outline: as §1
# cocklebur = assay: Test B pre/postemergence cocklebur; type: in vivo, Xanthium strumarium
# Outline: as §1
# blackgrass = assay: Test B pre/postemergence blackgrass; type: in vivo, Alopecurus myosuroides
# Outline: as §1
# wild oat = assay: Test B pre/postemergence wild oat; type: in vivo, Avena fatua; settings: for Plant response rating, Wild oats: Rate 250 g/ha
# Outline: as §1
# velvetleaf = assay: Test B pre/postemergence velvetleaf; type: in vivo, Abutilon theophrasti; settings: for Plant response rating, Velvetleaf: Rate 250 g/ha
# Outline: as §1
# giant foxtail = assay: Test B pre/postemergence giant foxtail; type: in vivo, Setaria faberii
# Outline: as §1
# soybean = assay: Test B pre/postemergence soybean; type: in vivo, Glycine max
# Outline: as §1
# [1] = Postemergence, Rate 125 g/ha, scale of 0 to 10 where 0 is no effect and 10 is complete control
# [2] = Preemergence, Rate 62 g/ha, scale 0 to 10 (0 no effect, 10 complete control)
# [3] = Preemergence, Rate 125 g/ha, scale 0 to 10 (0 no effect, 10 complete control)
# [4] = Preemergence, Rate 250 g/ha, scale of 0 to 10 where 0 is no effect and 10 is complete control
# [5] = Preemergence, Rate 500 g/ha, scale 0 to 10 (0 no effect, 10 complete control)
# [6] = Rate 62 g/ha, Postemergence, scale of 0 to 10 where 0 is no effect and 10 is complete control
# [7] = Rate 250 g/ha, Postemergence, scale 0 to 10, 0 is no effect, 10 is complete control
# [8] = Rate 500 g/ha, Postemergence, scale 0 to 10, 0 no effect, 10 complete control
# [9] = Postemergence (flood test species), Rate 125 g/ha, scale of 0 to 10 where 0 is no effect and 10 is complete control
# [10] = Rate 62 g/ha, Postemergence section, flood test species, scale of 0 to 10 where 0 is no effect and 10 is complete control
# [11] = Rate 250 g/ha, Postemergence (flood test), scale 0 to 10, 0 is no effect, 10 is complete control
# [12] = Rate 500 g/ha, listed under Postemergence (flood test species), scale 0 to 10, 0 no effect, 10 complete control
# [13] = Postemergence, Rate 62 g/ha, scale 0 to 10, 0 is no effect, 10 is complete control
# [14] = Postemergence, Rate 250 g/ha, scale 0 to 10, 0 no effect, 10 complete control
# [15] = Preemergence, Rate 125 g/ha, 0 is no effect, 10 is complete control
# [16] = Preemergence, scale of 0 to 10 where 0 is no effect and 10 is complete control
# [17] = Postemergence, scale 0 to 10, 0 is no effect, 10 is complete control
# [18] = Rate 125 g/ha, Postemergence, scale 0 to 10, 0 no effect, 10 complete control
smiles,measurement,setting,value
CC(C)N(C(=O)n1oc(=O)n(C2CCCCC2)c1=O)c1ccc(F)cc1F [Compound 115],Redroot pigweed plant response rating,pigweed; [1],0
same,Redroot pigweed plant response rating,pigweed; [2],5
same,"Plant response rating, Redroot pigweed",pigweed; [3],5
same,"Plant response rating, Redroot pigweed",pigweed; [4],6
same,Redroot pigweed plant response rating,pigweed; [5],8
same,Redroot pigweed plant response rating,pigweed; [6],0
same,"Plant response rating, Redroot pigweed",pigweed; [7],0
same,Redroot pigweed plant response rating,pigweed; [8],4
same,Rice plant response rating,rice; [9],0
same,Rice plant response rating,rice; [10],0
same,"Plant response rating, Rice",rice; [11],0
same,Rice plant response rating,rice; [12],0
same,Barnyardgrass plant response rating,bamyardgrass; [13],0
same,Barnyardgrass plant response rating,"bamyardgrass; Rate 125 g/ha, Postemergence section (flood test species), scale 0 to 10, 0 no effect, 10 complete control",0
same,Barnyardgrass plant response rating,bamyardgrass; [12],0
same,Barnyardgrass plant response rating,"bamyardgrass; flood test, listed under Postemergence, Rate 250 g/ha, scale 0 to 10, 0 no effect, 10 complete control",0
same,Corn plant response rating,corn; [1],0
same,Corn plant response rating,corn; [14],0
same,Corn plant response rating,corn; [2],0
same,"Plant response rating, Corn",corn; [3],0
same,"Plant response rating, Corn",corn; [4],0
same,Corn plant response rating,corn; [5],0
same,Corn plant response rating,corn; [6],0
same,Corn plant response rating,corn; [8],0
same,S. Flatsedge plant response rating,smallflower flatsedge; [9],0
same,S. Flatsedge plant response rating,smallflower flatsedge; [10],0
same,"Plant response rating, S. Flatsedge",smallflower flatsedge; [11],0
same,S. Flatsedge plant response rating,smallflower flatsedge; [12],0
same,Crabgrass plant response rating,crabgrass; [1],0
same,Crabgrass plant response rating,crabgrass; [14],2
same,Crabgrass plant response rating,crabgrass; [2],4
same,"Plant response rating, Crabgrass",crabgrass; [3],4
same,"Plant response rating, Crabgrass",crabgrass; [4],7
same,Crabgrass plant response rating,crabgrass; [5],9
same,Crabgrass plant response rating,crabgrass; [6],0
same,Crabgrass plant response rating,crabgrass; [8],6
same,Wheat plant response rating,wheat; [1],0
same,Wheat plant response rating,wheat; [2],0
same,Wheat plant response rating (0 to 10 scale),wheat; [15],0
same,"Plant response rating, Wheat",wheat; [16],0
same,Wheat plant response rating,wheat; [5],0
same,Wheat plant response rating,wheat; [6],0
same,"Plant response rating, Wheat",wheat; [17],0
same,Wheat plant response rating,wheat; [8],0
same,Bedstraw plant response rating,bedstraw; [13],0
same,Bedstraw plant response rating,bedstraw; [14],4
same,Bedstraw plant response rating,bedstraw; [2],0
same,"Plant response rating, Bedstraw",bedstraw; [3],0
same,"Plant response rating, Bedstraw",bedstraw; [4],0
same,Bedstraw plant response rating,bedstraw; [5],0
same,Bedstraw plant response rating,bedstraw; [18],0
same,Morningglory plant response rating,morningglory; [1],3
same,Morningglory plant response rating,morningglory; [14],6
same,Morningglory plant response rating,morningglory; [2],0
same,"Plant response rating, Morningglory",morningglory; [3],0
same,"Plant response rating, Morningglory",morningglory; [4],0
same,Morningglory plant response rating,morningglory; [5],0
same,Morningglory plant response rating,morningglory; [6],3
same,Morningglory plant response rating,morningglory; [8],6
same,B. signalgrass plant response rating,surinam grass; [13],0
same,B. signalgrass plant response rating,surinam grass; [14],0
same,B. signalgrass plant response rating,surinam grass; [2],2
same,"Plant response rating, B. signalgrass",surinam grass; [3],2
same,"Plant response rating, B. signalgrass",surinam grass; [4],4
same,B. signalgrass plant response rating,surinam grass; [5],10
same,B. signalgrass plant response rating,surinam grass; [18],0
same,B. signalgrass plant response rating,"surinam grass; Rate 500 g/ha, Postemergence, scale of 0 to 10 where 0 is no effect and 10 is complete control",8
same,Cocklebur plant response rating,cocklebur; [1],0
same,Cocklebur plant response rating,cocklebur; [14],1
same,Cocklebur plant response rating,cocklebur; [2],0
same,"Plant response rating, Cocklebur",cocklebur; [3],0
same,"Plant response rating, Cocklebur",cocklebur; [4],0
same,Cocklebur plant response rating,cocklebur; [5],0
same,Cocklebur plant response rating,cocklebur; [6],0
same,Cocklebur plant response rating,cocklebur; [8],2
same,Blackgrass plant response rating,blackgrass; [1],4
same,Blackgrass plant response rating,blackgrass; [14],6
same,Blackgrass plant response rating,blackgrass; [2],0
same,"Plant response rating, Blackgrass",blackgrass; [3],0
same,"Plant response rating, Blackgrass",blackgrass; [4],0
same,Blackgrass plant response rating,blackgrass; [5],6
same,Blackgrass plant response rating,blackgrass; [6],4
same,Blackgrass plant response rating,blackgrass; [8],7
same,Wild oats plant response rating,wild oat; [1],0
same,Wild oats plant response rating,wild oat; [2],0
same,Wild oats plant response rating (0 to 10 scale),wild oat; [15],0
same,"Plant response rating, Wild oats",wild oat; [16],0
same,Wild oats plant response rating,wild oat; [5],4
same,Wild oats plant response rating,wild oat; [6],0
same,"Plant response rating, Wild oats",wild oat; [17],0
same,Wild oats plant response rating,wild oat; [8],0
same,Velvetleaf plant response rating,velvetleaf; [1],0
same,Velvetleaf plant response rating,velvetleaf; [2],0
same,Velvetleaf plant response rating (0 to 10 scale),velvetleaf; [15],0
same,"Plant response rating, Velvetleaf",velvetleaf; [16],2
same,Velvetleaf plant response rating,velvetleaf; [5],2
same,Velvetleaf plant response rating,velvetleaf; [6],0
same,"Plant response rating, Velvetleaf",velvetleaf; [17],0
same,Velvetleaf plant response rating,velvetleaf; [8],0
same,Giant foxtail plant response rating,giant foxtail; [1],4
same,Giant foxtail plant response rating,giant foxtail; [14],5
same,Giant foxtail plant response rating,giant foxtail; [2],9
same,"Plant response rating, Giant foxtail",giant foxtail; [3],9
same,"Plant response rating, Giant foxtail",giant foxtail; [4],9
same,Giant foxtail plant response rating,giant foxtail; [5],10
same,Giant foxtail plant response rating,giant foxtail; [6],0
same,Giant foxtail plant response rating,giant foxtail; [8],9
same,Soybean plant response rating,soybean; [1],1
same,Soybean plant response rating,soybean; [2],0
same,"Plant response rating, Soybean",soybean; [3],0
same,"Plant response rating, Soybean",soybean; [4],0
same,Soybean plant response rating,soybean; [5],0
same,Soybean plant response rating,soybean; [6],1
same,"Plant response rating, Soybean",soybean; [7],4
same,Soybean plant response rating,soybean; [8],4
